For this test, the target named is T1, GPR120 (Homo sapiens, UniProt Q5NUL3).
T1 construct: expressed in transfected cells; host or cells: HEK293
T1 sequence (Q5NUL3 1-361): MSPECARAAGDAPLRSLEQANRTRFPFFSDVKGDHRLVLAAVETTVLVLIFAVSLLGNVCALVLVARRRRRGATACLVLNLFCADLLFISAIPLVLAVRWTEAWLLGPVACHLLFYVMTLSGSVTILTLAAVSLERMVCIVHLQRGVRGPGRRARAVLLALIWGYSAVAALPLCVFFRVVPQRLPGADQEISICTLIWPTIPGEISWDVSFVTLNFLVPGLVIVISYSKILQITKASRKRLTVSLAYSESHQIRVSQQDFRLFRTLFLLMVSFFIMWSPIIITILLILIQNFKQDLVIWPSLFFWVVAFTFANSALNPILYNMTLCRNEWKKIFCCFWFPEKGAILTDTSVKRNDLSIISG
The test can be described thus: BRET β-arrestin-2 recruitment to GPR120-GFP10 in HEK293 cells. Type of test: cell-based. The note with it: Rluc8-β-arrestin-2 / GPR120-GFP10. As for the experimental part: Figure 1 PBI-4547 binding and activity on GPR84, GPR40, GPR120, and PPAR receptors. (A) Chemical structure of PBI-4547. (B) Gi pathway activation was monitored in HEK293 cells transfected with GPR84 and the Gαi2 activation biosensor. Cells were co-treated with […] sodium decanoate and increasing concentrations of PBI-4547, and BRET variation compared with vehicle was measured. (C) β-arrestin 2 recruitment to activated GPR120 receptor was monitored in HEK293 cells transfected with RLuc8-β-arrestin 2 and GPR120-GFP10. (D) Cells transfected with GPR40 and Gαq or Gαi2 activation biosensor were exposed to increasing concentrations of PBI-4547 or to 500 µM of sodium decanoate, and BRET variation compared with vehicle was measured. Cells were exposed to increasing concentrations of PBI-4547 or to 100 µM of GW9508, and BRET variation compared with vehicle was measured. […] Data in (B–D) are expressed as means ± SEM of 4–5 experiments; data in (E,F) are from a representative experiment from a total of 3 to 4 independent experiments. […]
BRET measurements in transiently transfected HEK293 cells were performed as previously described. Ligands were incubated with cells at room temperature for 10 min (G protein biosensors) or 25 min (β-arrestin/GPR120) before collecting BRET[2] readings between Rluc8 and GFP10.

The structures appear in SMILES notation.

Consider `CCCCCc1cc(CCCCC)cc(CC(=O)[O-])c1.[Na+]` [PBI-4547, 2-[3,5-dipentylphenyl]acetate sodium salt], for which a half-maximal response (EC50) required 48 µM.

By EC50 is commonly meant the midpoint of the concentration-response curve. Low values mean greater potency, high ones weaker potency.

The values above are taken from PMC7391726, “Fatty acid mimetic PBI-4547 restores metabolic homeostasis via GPR84 in mice with non-alcoholic fatty liver disease” (Scientific Reports, 2020).
